# Source: patent US20260041620A1, “NOVEL AMINO ACID BASED SALTS, COMPOSITIONS AND METHODS FOR TREATING SKIN AND IMPROVING SKIN REJUVENATION AND LONGEVITY” (Sytheon Ltd, priority 2023, published 2026)
# Experiments:
# MAGL = molecular target: T1, MAGL (Homo sapiens, UniProt Q99685); assay: MAGL inhibitory assay; type: biochemical
# T1 construct: purchased Cayman 10007812
# T1 sequence (Q99685 1-303): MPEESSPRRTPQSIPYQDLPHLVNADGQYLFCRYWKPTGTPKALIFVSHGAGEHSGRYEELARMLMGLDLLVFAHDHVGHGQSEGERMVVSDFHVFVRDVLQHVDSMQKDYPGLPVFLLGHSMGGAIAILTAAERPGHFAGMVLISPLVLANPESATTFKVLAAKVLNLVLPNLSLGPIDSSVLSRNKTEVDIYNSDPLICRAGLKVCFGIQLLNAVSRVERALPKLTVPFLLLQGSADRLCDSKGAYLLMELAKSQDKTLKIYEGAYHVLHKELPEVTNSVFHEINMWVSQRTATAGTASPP
# Procedure: Each study was performed in duplicate and the results averaged.
# The final concentration in each well was 10 μl of sample, 5.6 μM MAGL (Cayman Catalog #10007812) and 23.6 μM 2-Arachidonoyl Glycerol (Cayman catalog #62160).
# HDAC 4 = HDAC 4 (Homo sapiens, UniProt P56524); assay: HDAC 4 fluorogenic assay kit
# Type IV Collagen = Type IV Collagen Assay (ELISA, fibroblast culture medium); type: cell-based, human; conditions: 10 μg/ml, 48 hours; untreated 7.76 ± 0.92
# Procedure: (§1) In the study, human neonatal fibroblasts were seeded into the individual wells of a 48-well plate in 0.25 ml of Fibroblasts Growth Media (FGM) and incubated overnight at 37±2° C. and a 5±1% CO2 atmosphere. On the following day the media was removed via aspiration to eliminate non-adherent cells and replaced with 0.5 ml of fresh FGM. The cells were grown until confluent, with a media change every 48 to 72 hours. Upon reaching confluency the cells were treated for 24 hours with Dulbecco's Modified Eagle's medium (DMED) supplemented with 1.5% Fetal Bovine Serum (FBS) to wash out any effects from the growth factors included in the normal culture media. After this 24-hour wash out period the cells were treated with the test materials at the specified concentrations dissolved in FGM with 1.5% FBS. Sodium ascorbate (10 ug/ml) was used as a positive control. Untreated cells (negative controls) only received DMEM with […], The cells were incubated for 48 hours and at the end of the incubation period, cell culture medium was collected and either stored frozen (−75 C) or assayed immediately. Materials were tested in triplicate.
# A series of type IV collagen peptide standards was prepared ranging from 0 ng/ml to 640 ng/ml. 100 μl of each standard or of each of the collected tissue culture media were added to the wells of type IV collagen ELISA plates. The plates were then incubated at 37° C. for 1 hour. After incubation, the ELISA plates were then washed twice with wash buffer, followed by the addition of 100 μl of detection antibody solution. The ELISA plates were then incubated for 1 hour at 37° C. Following incubation, the ELISA plates were washed with wash solution followed by the addition of 100 μl HEP conjugate solution and incubated at 37° C. for 30 minutes. Following the latter incubation, the ELISA plates were again washed and 100 μl of the substrate solution was added to each well and the well plates incubated for 10-30 minutes at room temperature to allow the color generation reaction to occur. At the end of the color generation reaction 100 μl of stop solution (1 N sulfuric acid) was added to each well and the plates read at 460 nm using a plate reader.
# (§2) To quantify the amount of each substance present, a standard curve was generated using known concentrations of each substance. A regression analysis was performed to establish the line that best fit those data points. Absorbance values for the test materials and untreated samples were used to estimate the amount of each substance present in each sample. Treatment means were compared using ANOVA, with an […] per treatment. Statistical significance was set at p≤0.05.
# Type I Collagen = Type I Collagen Assay (ELISA, fibroblast culture medium); type: cell-based, human; conditions: 10 μg/ml, 48 hours; untreated 1255 ± 83
# Procedure: as §1
# A series of type I collagen peptide standards was prepared ranging from 0 ng/ml to 640 ng/ml. An ELISA microplate was prepared by removing any unneeded strips from the plate frame followed by the addition of 100 μl of peroxidase labelled anti-procollagen type I-C peptide antibody to each well used in the assay. A 20 μl sample of each of the collected tissue culture media or a standard was then added to appropriate wells and the microplate covered and allowed to incubate for 3±0.25 hours at 37 C. Following incubation, the wells were aspirated and washed three times with 400 μl of wash buffer. After the last wash was remove 100 μl of peroxidase substrate solution (hydrogen peroxide+tetramethylbenzidine as a chromogen) was added to each well and the plate incubated for 15±4 minutes at room temperature. Following this incubation, 100 μl of stop solution (1 N sulfuric acid) was added to each well and the plate read using a microplate reader at 450 nm.
# as §2
# Telomerase = Telomerase Activity Quantification qPCR Assay in human dermal fibroblasts; type: cell-based; conditions: 300 nM, three days
# Procedure: Normal neonatal human dermal fibroblasts (HDF cat, #2310; ScienCell, Oceanside, CA) were grown to confluence in the 6 well plate format and incubated with the test substances identified in Table 3 for three days. Following incubation, the cells were lysed and telomerase activity was determined with Telomerase Activity Quantification qPCR Assay Kit from ScienCell (cat. #8928). Forget-Me-Not™ EvaGreen® qPCR Master Mix (Low ROX) (Biotium, Fremont, CA) was used for real-time quantitative PCR on C1000 Touch System with CFX384™ optical module Detection. For quantifying the level of activity, the Comparative Cq method was used, following the equation: […]
# where TPS is telomere primer set, which recognizes and amplifies newly synthesized telomere sequences and Cq(TPS) is the Quantification Cycle Value obtained from the qPCR software. The relative telomerase activity difference between the experimental condition and control is expressed as 2^−ΔCq Telomerase activity was considered different if the level of expression was reasonably high (Cq≤33 cycles to detect), the difference vs. control was >2 fold and the p value, assessed with two-tailed Student test, was <0.05.
# HDAC 4, sequence (P56524 whole entry): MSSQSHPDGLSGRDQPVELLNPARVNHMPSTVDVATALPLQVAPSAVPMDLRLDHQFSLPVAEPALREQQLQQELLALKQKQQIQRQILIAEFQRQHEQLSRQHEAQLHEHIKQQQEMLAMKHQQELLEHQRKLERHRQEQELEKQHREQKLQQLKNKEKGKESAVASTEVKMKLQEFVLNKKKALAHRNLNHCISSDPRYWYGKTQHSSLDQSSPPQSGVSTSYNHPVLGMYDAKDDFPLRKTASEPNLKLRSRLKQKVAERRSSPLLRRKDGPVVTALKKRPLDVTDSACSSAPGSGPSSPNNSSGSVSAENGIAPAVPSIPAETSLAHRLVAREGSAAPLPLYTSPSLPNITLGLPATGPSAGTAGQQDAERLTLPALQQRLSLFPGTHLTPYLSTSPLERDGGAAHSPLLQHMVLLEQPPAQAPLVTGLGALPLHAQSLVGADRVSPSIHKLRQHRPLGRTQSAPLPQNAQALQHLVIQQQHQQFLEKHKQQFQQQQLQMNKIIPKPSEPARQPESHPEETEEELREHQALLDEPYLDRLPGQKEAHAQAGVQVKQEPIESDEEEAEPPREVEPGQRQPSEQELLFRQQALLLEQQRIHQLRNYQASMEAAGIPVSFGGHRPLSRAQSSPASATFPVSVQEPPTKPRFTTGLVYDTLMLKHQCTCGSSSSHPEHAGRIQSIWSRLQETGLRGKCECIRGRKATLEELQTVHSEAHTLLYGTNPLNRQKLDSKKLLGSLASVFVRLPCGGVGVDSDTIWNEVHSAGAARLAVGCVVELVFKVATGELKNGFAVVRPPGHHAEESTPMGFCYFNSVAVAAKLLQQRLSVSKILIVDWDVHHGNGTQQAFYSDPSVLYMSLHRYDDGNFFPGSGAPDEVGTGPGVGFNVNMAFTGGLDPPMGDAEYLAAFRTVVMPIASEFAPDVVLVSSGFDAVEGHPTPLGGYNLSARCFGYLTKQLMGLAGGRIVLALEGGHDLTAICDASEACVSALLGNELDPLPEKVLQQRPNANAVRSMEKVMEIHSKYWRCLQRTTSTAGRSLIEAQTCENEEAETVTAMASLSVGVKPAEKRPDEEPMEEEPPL
compound,measurement,setting,value
"C=C(C)[C@@H]1CCC(C)=C[C@H]1c1c(O)cc(CCCCC)cc1O [CBD, Cannabidiol, reference compound]",MAGL IC50,MAGL,"4,130^2 ^ μg/ml"
"CCCC(=O)[O-].CCCC(=O)[O-].[Ca+2] [Ca n-butyrate, reference compound]","HDAC 4 activity, % of water-treated controls",HDAC 4; 25 ug/ml,104%
same,"HDAC 4 activity, % of water-treated controls",HDAC 4; 50 ug/ml,102%
same,"HDAC 4 activity, % of water-treated controls",HDAC 4; 100 ug/ml,109%
"O=C1O[C@H]([C@@H](O)CO)C([O-])=C1O.[Na+] [Na ascorbate, Sodium ascorbate]",Type IV Collagen C-Peptide,Type IV Collagen,67.70 ± 5.03 ng/mL
same,Type I Collagen C-Peptide,Type I Collagen,4018 ± 196 ng/mL
CC(/C=C/C(=O)NO)=C\[C@@H](C)C(=O)c1ccc(N(C)C)cc1 [Trichostatin-A],Average Cq(TPS),Telomerase,32.3
same,Telomerase Activity (FC vs. water),Telomerase,2.8 FC
same,ΔCq sample-water,Telomerase,1.5
